Measured values taken from patent US20260232590A1, “LIPID NANOPARTICLES FOR THE TREATMENT OF OCULAR DISEASES” (UNIVERSITAT DE BARCELONA, priority 2023, published 2026).

What was measured:
[1] = concentration of 0.5%; cited from earlier work
[2] = test system: chorioallantoic membrane of a fertilized chicken egg; assay: In vitro ocular tolerance HET-CAM test; details: 300 μL, first 5 min
Method: In vitro ocular tolerance was assessed using the HET-CAM test to ensure that the formulations of Loaded Lipid Nanoparticles were non-irritating when administered as eye-drops. Irritation, coagulation, and haemorrhage phenomena were measured by applying 300 μL of the formulation studied on chorioallantoic membrane of a fertilized chicken egg and monitoring it during the first 5 min after the application. This assay was conducted according to the guidelines of ICCVAM (The Interagency Coordinating Committee on the Validation of Alternative Methods). The development of the test was carried out using 3 eggs for each group (free APG, Loaded Lipid Nanoparticles, positive control (NaOH 0.1 M) and negative control (0.9% NaCl)). The ocular irritation index (OII) was calculated by the sum of the scores of each injury according to the following expression (Eq 3):
[formula] • where H, V and C are times (s) until the start of haemorrhage (H), vasoconstriction (V) and coagulation (C), respectively. The formulations were classified according to the following: OII≤0.9 non-irritating; 0.9<OII≤4.9 weakly irritating; 4.9<OII≤8.9 moderately irritating; 8.9<OII≤21 irritating.

[3] = test system: dry eye induced by 0.1% benzalkonium chloride; assay: Dry eye disease model, Schirmer test (aqueous tear production); type: in vivo, New Zealand white rabbits; details: twice-daily topical, one week
Method: In order to evaluate the potential to treat dry eye of Loaded Lipid Nanoparticles, Schirmer test, fluorescein and Bengal rose assessments were performed against Lipid Nanoparticles, free APG and 0.15% hyaluronic acid (commercial solution Hyabak®). Twelve male New Zealand white rabbits (purchased from Livestock Research Institute, Council of Agriculture, Executive Yuan, Taiwan) weighing between 2.0 and 2.5 kg were used for the study. The rabbits were randomly divided into 4 groups: Lipid Nanoparticles, Loaded Lipid Nanoparticles, free APG solution and 0.15% hyaluronic acid (commercial solution (Hyabak®). All rabbits were housed at a room temperature of 23±2° C. with relative humidity 75±10% and alternating 12-hour light-dark cycles (8 a.m. to 8 p.m.). Both eyes of each rabbit were treated twice-daily by a topical administration of 0.1% benzalkonium chloride (BAC) drops for 2 weeks. On day 14, DES was confirmed by Schirmer test, fluorescein and Bengal rose staining. The treatment began after the confirmation of DES, where on eye of each rabbit was chosen randomly for twice-daily topical administration of Lipid Nanoparticles, Loaded Lipid Nanoparticles, free APG solution and a commercial solution. […] Tear production was measured using Schirmer test strips. […] After 5 min, the wetted length (mm) of the paper strips was recorded.

CAM of embryonated eggs = assay: Antiangiogenic activity, modified CAM test; set-up: species or system chicken; details: 40 μL, 48 h
Method: To determine the antiangiogenic effects of Loaded Lipid Nanoparticles, a modified choriolantoic membrane (CAM) test was used. It was carried out using fertilised chicken eggs incubated at 37° C. and 85% humidity from the farm […] (Tarragona, Spain). A lateral window was opened on the eggshell on the 3rd day of incubation and after 24 h of stabilization, 40 μL of the sample were inoculated to the CAM. Afterwards the membrane was sealed and incubated for 48 h. The controls of the experiments were NaCl as a normal angiogenic development, and basic fibroblast growth factor (bFGF) as a pro-angiogenic control (20 μL at 10 ng·mL^-1). Once CAM were evaluated, membranes were fixed by adding 4% paraformaldehyde overnight at 4° C. Next, membranes were extracted and observed using a binocular loupe. Afterwards, the obtained images were processed and the density of the vessels in the CAM was automatically measured using ImageJ vessel analysis plugin [34].

[4] = test system: New Zealand male albino rabbits; assay: In vivo primary eye irritation test of Draize; set-up: species or system rabbit
Method: All of the procedures were approved by the Ethical Committee for Animal Experimentation of the UB and current legislation (Decree 214/97, Gencat). The formulations were evaluated using primary eye irritation test of Draize to ensure the results obtained from the […] test. For this experiment, New Zealand male albino rabbits (2.0-2.5 kg, San Bernardo farm, Navarra, Spain) were used. 50 μL of each sample were instilled in the ocular conjunctival sac (n=3/group) and a mild massage was applied to guarantee the passage of the sample through the eyeball. […] The opposite untreated eye was used as a negative control. Draize test score was determined directly by observing the anterior segment of the eye and changes in the structures of the cornea (turbidity or opacity), iris and conjunctiva (congestion, chemosis, swelling and secretion).

[5] = test system: chorioallantoic membrane of a fertilized chicken egg; assay: Trypan blue staining (TBS) of the CAM; details: after HET-CAM
Method: Furthermore, at the end of the HET-CAM experiment, in order to quantify the damage of the membrane, trypan blue staining (TBS) was applied. The CAM was treated with 1000 μL of 0.1% trypan blue solution for 1 min. Excess dye was rinsed off with distilled water. The dyed CAM was excised and extracted with 5 mL formamide, and the absorbance of the extract was measured spectrophotometrically at 595 nm. The absorbed trypan blue was determined from a calibration curve of trypan blue in formamide.

[6] = test system: dry eye induced by 0.1% benzalkonium chloride; assay: Dry eye disease model, fluorescein staining of the ocular surface; type: in vivo, New Zealand white rabbits; details: twice-daily topical, one week
Method: In order to evaluate the potential to treat dry eye of Loaded Lipid Nanoparticles, Schirmer test, fluorescein and Bengal rose assessments were performed against Lipid Nanoparticles, free APG and 0.15% hyaluronic acid (commercial solution Hyabak®). Twelve male New Zealand white rabbits (purchased from Livestock Research Institute, Council of Agriculture, Executive Yuan, Taiwan) weighing between 2.0 and 2.5 kg were used for the study. The rabbits were randomly divided into 4 groups: Lipid Nanoparticles, Loaded Lipid Nanoparticles, free APG solution and 0.15% hyaluronic acid (commercial solution (Hyabak®). All rabbits were housed at a room temperature of 23±2° C. with relative humidity 75±10% and alternating 12-hour light-dark cycles (8 a.m. to 8 p.m.). Both eyes of each rabbit were treated twice-daily by a topical administration of 0.1% benzalkonium chloride (BAC) drops for 2 weeks. On day 14, DES was confirmed by Schirmer test, fluorescein and Bengal rose staining. The treatment began after the confirmation of DES, where on eye of each rabbit was chosen randomly for twice-daily topical administration of Lipid Nanoparticles, Loaded Lipid Nanoparticles, free APG solution and a commercial solution. After one week of treatment, Schirmer test, fluorescein and Bengal rose staining were performed. Fluorescein staining is an effective method for ocular surface evaluation. […]

[7] = In vitro APG release, Franz-type diffusion cells; type: in vitro ADME
Method: The in vitro APG release test for Loaded Lipid Nanoparticles was performed using Franz-type diffusion cells (Crown Glass, NY, USA) with a diffusion area of 0.20 cm^2 and dialysis membranes of cellulose (MWCO 12 kDa). A solution of PBS with 5% polysorbate 80 and 20% ethanol under continuous stirring was used as a receptor medium assuring sink conditions (ability of the medium to dissolve the expected amount of drug). The formulations were compared with free-APG solution. The assay was carried out at 32±0.5° C. along 48 h. 300 μL of each formulation were added to the donor compartment by direct contact with the membrane. At a certain timepoints, 150 μL of sample were collected with a syringe and the volume withdrawn was replaced with receptor solution. Drug content of the samples was analysed with HPLC. The test was performed by triplicate, and the cumulative amount of APG was calculated.

HCE-2 cells = assay: MTT cell viability in corneal cells; type: cell-based, human; details: 5- and 15-minutes incubation
Method: (§1) Human corneal epithelial cells (HCE-2) (LGC Standards, Barcelona, Spain) were cultured in keratinocyte serum-free growth medium (SFM; Life Technologies, Invitrogen, GIBCO®, Paisley, UK)). It was supplemented with bovine pituitary extract 0.05 mg·mL^−1 and epidermal growth factor 5 ng·mL^−1 containing insulin 0.005 mg·mL^−1 and penicillin 100 U·mL^−1 plus streptomycin […]. Cells were grown on a culture flask to 80% confluency in a humidified 10% CO2 atmosphere at 37° C. Human UM 92-1 cells were maintained in RPMI-1640 medium, added with 10% fetal bovine serum (FBS), 2 mM L-glutamine, 100 units/mL penicillin and […] streptomycin. For MTT assay, passages from 10 to 13 were used. All the cells were incubated at 37° C. and 10% CO2 [28].
(§2) Cytotoxicity of Loaded Lipid Nanoparticles and Lipid Nanoparticles was determined by MTT (3-(4,5-Dimethylthiazol-2-yl)-2,5-diphenyl tetrazolium bromide) assay, by reduction of tetrazolium salt by intracellular dehydrogenases of viable living cells. […] Cell viability was then measured at wavelength of 560 nm in a Modulus® Microplate Photometer (Turner BioSystems Inc., Sunnyvale, CA, USA). Results were expressed as percentage of cell survival relative to untreated cells.
The cytotoxicity of several concentrations of free APG, Loaded Lipid Nanoparticles, and the Lipid Nanoparticles (without APG) were evaluated on HCE-2 cells. […]

UM 92.1 cancer cells = assay: MTT cytotoxic capacity in ocular tumoral cells; type: cell-based, human; details: 0.005-0.05 mg/mL, 24 h
Method: as §1
as §2, with “untreated cells. […]” for “untreated cells.”

[8] = test system: ocular inflammation induced by sodium arachidonate; assay: In vivo anti-inflammatory treatment study (sodium arachidonate); set-up: species or system New Zealand male albino rabbits; details: applied 30 min after SA
Method: In vivo anti-inflammatory effectiveness was carried out throughout the evaluation test for the inflammation prevention ability and the anti-inflammatory efficacy. Assays were carried out using New Zealand male albino rabbits (n=3/group), described previously. The activity of Loaded Lipid Nanoparticles in comparison with free APG, Lipid Nanoparticles, and NaCl 0.9% (control group) was measured. The inflammation prevention study consisted of the ocular application of 50 μL of each formulation. After 30 min of exposure, an inflammatory stimulus, 50 μL of 0.5% sodium arachidonate (SA) dissolved in PBS, was instilled in the right eye and the left eye was used as a control. In the anti-inflammatory treatment study, the inflammatory stimulus was applied 30 min before than the application of each formulation tested. The evaluation of prevention and treatment of each formulation were carried out from the first application up to 210 min, according to the Draize modified test scoring system.

## CCCCCCCCCCCCCCCCCC[N+](C)(C)CCCCCCCCCCCCCCCCCC.[Br-] [DDAB, dimethyldioctadecylammonium bromide]
[1]
  toxicity in ocular delivery: had not shown any toxicity

## [Na+].[OH-] [NaOH]
[2]
  HET-CAM irritation classification: severe irritant

## O=c1cc(-c2ccc(O)cc2)oc2cc(O)cc(O)c12 [free APG, Apigenin]
[3]
  tear flow (Schirmer test) versus dry eye group: did not improve the tear flow
CAM of embryonated eggs
  vascular density versus negative control (NaCl): not significant
[4]; 50 μL in conjunctival sac
  Draize test irritancy in vivo: non-irritant
[4]; in vivo
  discomfort after instillation: caused an initial discomfort
[5]
  TBS quantitative result (irritancy): irritant
[6]
  fluorescein staining score, corneal surface: worse punctuation in the staining
[7]; 48 h
  in vitro release profile: faster release
[7]; at 24 h, 32° C., PBS with 5% polysorbate 80 and 20% ethanol
  APG released: 100%
HCE-2 cells
  cell viability: ≥ 80%
HCE-2 cells; all the tested concentrations
  cell viability / toxicity: did not show toxicity
UM 92.1 cancer cells
  cytotoxicity against cancer cells: significant toxicity
[8]
  inflammation treatment effect: able to treat fast the inflammation
